This is an account of results in patent US12447167B2, “GM-CSF-producing t-cell control agent and Th1/Th2 immune balance regulator” (National Center of Neurology and Psychiatry, priority 2014, dated 2025).

In one assay the test system is GM-CSF. In words: GM-CSF expression level of sorted CD4-positive memory T-cells of MS patients (ELISA of culture supernatant). The class given is in vivo, human. Particulars: 0.3 mg single oral. On the procedure:
(§1) A single dose of compound 31, which is a synthetic glycolipid of the present invention, described in the first aspect was orally administered to each of 2 MS patients (subjects) shown in Table 2 above after obtainment of informed consent. The dose was set to 0.3 mg per person.
(§2) Subsequently, T-cell subfractions were prepared from the peripheral blood of each subject by using the density gradient centrifugation method. First, a total of 20 mL of blood was collected from the vein of each subject 24 hours (1st day), 48 hours (2nd day), 72 hours (3rd day), 168 hours (7th day), and 192 hours (8th day) after the administration of compound 31 by using two 10-mL heparin sodium-containing vacuum blood collection tubes. For a control, 20 mL of blood was similarly collected from the vein of each subject one day before the administration of compound 31.
(§3) The collected PBMCs were stained with antibodies by the following method. First, 10 μL of a solution consisting of 20 μL of MACS buffer, 0.25 μL of APC-Cy7-anti-CD3 antibody (BioLegend, Inc.), 1 μL of PB-anti-CD4 antibody (BioLegend, Inc.), 1 μL of PerCP-Cy5.5-anti-CD45RA antibody (BioLegend, Inc.), and 1 μL of PC7-anti-CD56 antibody (Beckman Coulter, Inc.) was added to 6×10^6 cells of PBMCs, thoroughly mixed by vortexing, and then left on ice for 20 minutes. CD56 is a detection marker of cells having NK activity, and CD3^−CD56^− cells indicate being antigen-presenting cells (APCs). […]
(§4) mCD4T and APC obtained by the sorting were each suspended in a medium consisting of 500 mL of RPMI1640 (GIBCO/Thermo Fisher Scientific Inc.), 5 mL of glutamine (200 mM, Wako Pure Chemical Industries, Ltd.), 5 mL of Pen/strep (10,000 U/mL, GIBCO/Thermo Fisher Scientific Inc.), 0.5 mL of 2-mercaptoethanol (GIBCO/Thermo Fisher Scientific Inc.), and 50 mL of 10% (v/v) Cellect FETAL BOVINE SERUM (MP Biomedicals, LLC), and the number of cells was measured. […]
(§5) After the culture, a culture supernatant was collected, and IFN-γ, IL-4, IL-17, and GM-CSF were measured by the ELISA method. […]
On the technique in general: ELISA stands for enzyme-linked immunosorbent assay.

For the next assay, the system named is IL-4. In words: IL-4 expression level of sorted CD4-positive memory T-cells of MS patients (ELISA of culture supernatant). The class given is in vivo, human. Particulars: 0.3 mg single oral. As for the experimental part: as §1, §2, §3, §4, §5

On to `CCCCCCCCCCCCCCCCCCCCCCCC(=O)NC(COC1OC(CO)C(O)C(O)C1O)[C@H](O)C(O)CCCCC` (stereo in doubt) [compound 31, (2S,3S,4R)-1-O-(α-D-galactosyl)-2-(N-tetracosanoylamino)-1,3,4-nonanetriol], for which the GM-CSF expression level was determined as 50.81 with GM-CSF (day 8, MBP stimulation, day −1 value 153.15) and 168.45 in the assay with GM-CSF (day 8, OVA stimulation, day −1 value 224.87). In addition, the “change of expression level of GM-CSF” value with GM-CSF (day8 vs day-1) is on record as “decreased”. The IL-4 expression level with IL-4 (day 8, MBP stimulation, day −1 value 3.63) came to 6.38; in the assay with IL-4 (day 8, OVA stimulation, day −1 value 3.66), 7.19. In addition, in the assay with IL-4 (day8 vs day-1), the “change of expression level of IL-4” value was “increased”.
